Measurements taken from patent US9757368B2, “Anti-inflammatory agents” (Resverlogix Corp., priority 2009, dated 2017).

Tests used:
hIL-6 mRNA = experiment: Quantification of hIL-6 mRNA in LPS-stimulated U937 macrophages (real-time PCR); assay type: cell-based, human; design: key: Active: an active compound is one that causes a ≧20% inhibition in IL-6 mRNA at a concentration less than or equal to 10 μM; settings: U937 cells differentiated with PMA, 1 h pretreatment, LPS 1 μg/mL, 3 h; IL-6 mRNA normalised to hCyclophilin; compound ≤10 μM
Description: In this example, hIL-6 mRNA in tissue culture cells was quantitated to measure the transcriptional inhibition of hIL-6 when treated with a compound of the invention.
A human leukemic monocytic lymphoma cell line (U937) was plated (3.2×10^5 cells per well) in a 96-well plate in 100 μL RPMI 1640+10% FBS, and differentiated into macrophages with PMA (60 ng/mL) for 3 days prior to the addition of the compound of interest. The cells were pretreated for 1 h with the test compound in DMSO prior to stimulation with lipopolysaccharide from Escherichia coli at 1 μg/mL. The cells were incubated for 3 h before harvest. At the time of harvest, cells were rinsed in 200 μL PBS. Cell lysis solution (70 μL) was added the cells for 10 min, and mRNA was then prepared using the “mRNA Catcher PLUS plate” (Invitrogen), according to the protocol supplied.
The eluted mRNA isolated was then used in a one-step quantitative real-time PCR reaction, using components of the UltraSense kit together with Applied Biosystems primer-probe mixes. 10 μL of template was amplified with 1.75 μL of IL-6 primer-probe, and 1 μL of hCyclophilin primer probe, and the reaction was carried out in multiplex. Real-time PCR data was analyzed, normalizing the Ct values for hIL-6 to hCyclophilin, prior to determining the fold induction of each unknown sample, relative to the control.

hVCAM-1 mRNA = experiment: Quantification of hVCAM-1 mRNA in TNF-α-stimulated HUV-EC-C cells (real-time PCR); assay type: cell-based, human; design: key: Active: an active compound is one that causes a ≧20% inhibition in VCAM-1 mRNA at a concentration less than or equal to 10 μM; settings: 1 h pretreatment, TNF-α 10 ng/mL, 24 h, VCAM-1 mRNA normalised to hCyclophilin, compound ≤10 μM
Description: In this example, hVCAM-1 mRNA in tissue culture cells was quantitated to measure the transcriptional inhibition of hVCAM when treated with a compound of the invention.
A human umbilical vein endothelial cell line (HUV-EC-C) was plated in a 96-well plate (5.0×10^3 cells/well) in 100 μL EGM complete media and incubated for 24 h prior to the addition of the compound of interest. The cells were pretreated for 1 h with the test compound in DMSO prior to stimulation with tumor necrosis factor-α (10 ng/mL). The cells were incubated for an additional 24 h before harvest. At time of harvest, the cells were rinsed in 200 μL PBS, and cell lysis solution (70 μL) was then added the cells for 10 min. mRNA was then prepared using the “mRNA Catcher PLUS plate” (Invitrogen), according to the protocol supplied.
The eluted mRNA was then used in a one-step quantitative real-time PCR reaction, using components of the UltraSense kit together with Applied Biosystems primer-probe mixes. 10 μL of template was amplified with 1.75 μL of hVCAM-1 primer-probe, and 1 μL of hCyclophilin primer probe, and the reaction was carried out in multiplex. Real-time PCR data was analyzed, normalizing the Ct values for hVCAM-1 to hCyclophilin, prior to determining the fold induction of each unknown sample, relative to the control.

SMILES | Inhibition of IL-6 expression (hIL-6 mRNA) | Inhibition of VCAM-1 expression (hVCAM-1 mRNA)
COc1cc(OC)c2c(=O)[nH]c(-c3cc(C)c(CNC(C)=O)c(C)c3)nc2n1 [Example 39, N-[4-(5,7-dimethoxy-4-oxo-3,4-dihydro-pyrido[2,3-d]pyrimidin-2-yl)-2,6-dimethyl-benzyl]-acetamide] | Active | Active
COc1cc(OC)c2c(=O)[nH]c(-c3cc(C)c(OCCNCC(F)(F)F)c(C)c3)nc2c1 [Example 40, 2-{3,5-dimethyl-4-[2-(2,2,2-trifluoro-ethylamino)-ethoxy]-phenyl}-5,7-dimethoxy-3H-quinazolin-4-one] | Active | Active
CNCCOc1c(C)cc(-c2nc3cc(OC)cc(OC)c3c(=O)[nH]2)cc1C [Example 42, 2-(3,5-dimethyl-4-(2-(methylamino)ethoxy)phenyl)-5,7-dimethoxyquinazolin-4(3H)-one] | Active | Active
COc1cc(OC)c2c(=O)[nH]c(-c3cc(C)c(OCCNC(C)C)c(C)c3)nc2c1 [Example 44, 2-(4-(2-(isopropylamino)ethoxy)-3,5-dimethylphenyl)-5,7-dimethoxyquinazolin-4(3H)-one] | Active | Active
COc1cc(OC)c2c(=O)[nH]c(-c3cc(C)c(OCCN(C)C(C)=O)c(C)c3)nc2c1 [Example 47, N-(2-(4-(5,7-dimethoxy-4-oxo-3,4-dihydroquinazolin-2-yl)-2,6-dimethylphenoxy)ethyl)-N-methylacetamide] | Active | Active
COc1cc(OC)c2c(=O)[nH]c(-c3cc(C)c(OCCNC#N)c(C)c3)nc2c1 [Example 51, N-(2-(4-(5,7-dimethoxy-4-oxo-3,4-dihydroquinazolin-2-yl)-2,6-dimethylphenoxy)ethyl)cyanamide] | Active | Active
COc1cc(OC)c2c(=O)[nH]c(-c3ccc4cc(CCO)[nH]c4c3)nc2c1 [Example 58, 2-[2-(2-hydroxyethyl)-1H-indol-6-yl]-5,7-dimethoxy-3H-quinazolin-4-one] | Active | Active
